Test results from patent publication US20260217828A1, “IMMUNE CHECKPOINT BLOCKADE THERAPY FOR TREATING STAPHYLOCOCCUS AUREUS INFECTIONS” (priority 2023, published 2026).

Test system: bioluminescent MRSA (USA300 LAC::lux)
Experiment: Transtibial implant-associated osteomyelitis in C57BL/6 mice, treated with sabatolimab or saline placebo
Assay type: in vivo, Staphylococcus aureus
Settings: vs saline placebo
Method: (FIG. 7A) Schematic illustration of the experimental design. 8-week-old C57BL/6 mice were subjected to transtibial implant-associated osteomyelitis using bioluminescent MRSA (USA300 LAC::lux) and treated with sabatolimab or a saline placebo control. The concentration of anti-TIM-3 mAb used in the study is also outlined.
Similar assays were carried out to examine the efficacy trend of immune checkpoint blockade drug Sabatolimab (anti-TIM-3) in reducing S. aureus burden due to implant-associated osteomyelitis.
Briefly, 8-week-old C57BL/6 mice were subjected to transtibial implant-associated osteomyelitis using bioluminescent MRSA (USA300 LAC::lux). The mise were then treated with sabatolimab or a saline placebo control. The concentration of anti-TIM-3 mAb used in the study was also outlined in FIG. 7A.

Substance: sabatolimab: immune checkpoint blockade drug Sabatolimab (anti-TIM-3)
- in vivo S. aureus growth (longitudinal BLI) (8-week-old C57BL/6 mice, MRSA USA300 LAC::lux, n=9-10, ANOVA p<0.05): significantly decreased
- disease severity by terminal ex vivo CFU on the tibia and internal organs (heart, liver, kidneys, and spleen) (C57BL/6 mice, day 14 post-surgery, n=9-10, t-test p<0.05): lower disease severity
